Experimental findings from ChEMBL document CHEMBL5131567, “3,5,7-Substituted Pyrazolo[4,3-d]Pyrimidine Inhibitors of Cyclin-Dependent Kinases and Cyclin K Degraders” (J Med Chem, 2022) are described below.

Active and inactive are the calls of the source. The rule behind the calls is not given here. A value given as a limit tells only on which side of the number the result lay.

Assay [1] can be described thus: Antiproliferative activity against human UPF1H cells assessed as cell growth inhibition measured after 72 hrs by resazurin dye based microplate reader analysis. The format is functional.
For assay [2], the target named is Cyclin-dependent kinase 2/cyclin E1 (Homo sapiens, UniProt P24941). The assay is described as follows: Inhibition of His-tagged CDK2/cyclin E1 (unknown origin) expressed in Sf9 cells using histone H1 as substrate in presence of ATP and [gamma33-P]ATP by radioisotope filter binding assay. Format: cell-based.
The nature of assay [3]: Antiproliferative activity against human MINO cells assessed as cell growth inhibition measured after 72 hrs by resazurin dye based microplate reader analysis. Format: functional.
A further assay has as its system U2932. In words: Antiproliferative activity against human U2932 cells assessed as cell growth inhibition measured after 72 hrs by resazurin dye based microplate reader analysis. Format: functional. Background: The colour change of resazurin is a common sign of viable cells or microbes.
The test system of another assay is DB. In words: Antiproliferative activity against human DB cells assessed as cell growth inhibition measured after 72 hrs by resazurin dye based microplate reader analysis. Format: functional.
Assay [4] can be described thus: Antiproliferative activity against human OCI-Ly2 cells assessed as cell growth inhibition measured after 72 hrs by resazurin dye based microplate reader analysis. Format: functional.
Assay [5] concerns the target Cyclin-dependent kinase 13/Cyclin-K (Homo sapiens, UniProt Q14004). The assay is described as follows: Inhibition of GST-tagged human CDK13/Cyclin K expressed in Sf9 cells using RBER-IRStide peptide as substrate in presence of ATP and [gamma33-P] ATP by radioisotope filter binding assay.
In another assay the test system is MINO. In words: Downregulation of cyclin K levels in human MINO cells up to 5 uM incubated for 2 hrs by immunoblotting analysis. Format: functional, cell-based. A general note: Immunoblotting shows a protein as a band on a membrane.
A further assay deals with OCI-LY19. In words: Antiproliferative activity against human OCILY19 cells assessed as cell growth inhibition measured after 72 hrs by resazurin dye based microplate reader analysis. The format is functional.
The nature of assay [6]: Inhibition of GST-tagged human CDK5/p25 expressed in Sf9 cells using histone H1 as substrate in presence of ATP and [gamma33-P] ATP by radioisotope filter binding assay.
The next assay concerns SUD4. The assay is described as follows: Antiproliferative activity against human SU-DHL-4 cells assessed as cell growth inhibition measured after 72 hrs by resazurin dye based microplate reader analysis. Format: functional.
A further assay deals with NU-DUL-1. The assay is described as follows: Antiproliferative activity against human NU-DUL-1 cells assessed as cell growth inhibition measured after 72 hrs by resazurin dye based microplate reader analysis. Format: functional.
Assay [7] can be described thus: Antiproliferative activity against human Ri-1 cells assessed as cell growth inhibition measured after 72 hrs by resazurin dye based microplate reader analysis. Format: functional.
Assay [8] deals with Cyclin-dependent kinase 2/G1/S-specific cyclin-D1 (Homo sapiens, UniProt P24385+P24941). The format is cell-based, Sf9.
The target of another assay is CDK9/cyclin T1 (Homo sapiens, UniProt P50750). The assay is described as follows: Inhibition of GST-tagged human CDK9/Cyclin T1 expressed in Sf9 cells using (YSPTSPS)2KK peptide as substrate in presence of ATP and [gamma33-P] ATP by radioisotope filter binding assay. The format is cell-based.
A further assay addresses CDK12/Cyclin K (Homo sapiens, UniProt Q9NYV4). The assay is described as follows: Inhibition of GST-tagged human CDK12/Cyclin K expressed in Sf9 cells using RBER-IRStide peptide as substrate in presence of ATP and [gamma33-P] ATP by radioisotope filter binding assay.

What is called GI50 is the concentration at which growth is held to half of that of the control. Broadly, the IC50 is the concentration at which inhibition is half-maximal.

Chain of CDK12/Cyclin K (O75909 whole entry): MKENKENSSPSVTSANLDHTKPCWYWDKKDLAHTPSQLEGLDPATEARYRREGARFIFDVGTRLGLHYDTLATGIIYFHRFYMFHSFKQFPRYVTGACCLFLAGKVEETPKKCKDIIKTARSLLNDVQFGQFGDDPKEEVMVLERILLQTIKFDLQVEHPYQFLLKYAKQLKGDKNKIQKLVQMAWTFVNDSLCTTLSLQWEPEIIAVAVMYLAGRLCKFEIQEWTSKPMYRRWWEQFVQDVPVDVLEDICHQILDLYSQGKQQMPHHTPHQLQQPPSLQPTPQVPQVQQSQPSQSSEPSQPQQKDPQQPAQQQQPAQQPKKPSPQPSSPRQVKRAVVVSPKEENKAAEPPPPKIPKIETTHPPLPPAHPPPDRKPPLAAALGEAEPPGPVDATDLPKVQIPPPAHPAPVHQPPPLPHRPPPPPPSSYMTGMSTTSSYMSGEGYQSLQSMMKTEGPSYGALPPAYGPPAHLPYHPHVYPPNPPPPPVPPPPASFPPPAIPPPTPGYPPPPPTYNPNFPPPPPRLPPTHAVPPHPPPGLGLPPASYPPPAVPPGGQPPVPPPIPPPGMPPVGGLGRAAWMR
Chain of CDK12/Cyclin K (Q9NYV4 whole entry): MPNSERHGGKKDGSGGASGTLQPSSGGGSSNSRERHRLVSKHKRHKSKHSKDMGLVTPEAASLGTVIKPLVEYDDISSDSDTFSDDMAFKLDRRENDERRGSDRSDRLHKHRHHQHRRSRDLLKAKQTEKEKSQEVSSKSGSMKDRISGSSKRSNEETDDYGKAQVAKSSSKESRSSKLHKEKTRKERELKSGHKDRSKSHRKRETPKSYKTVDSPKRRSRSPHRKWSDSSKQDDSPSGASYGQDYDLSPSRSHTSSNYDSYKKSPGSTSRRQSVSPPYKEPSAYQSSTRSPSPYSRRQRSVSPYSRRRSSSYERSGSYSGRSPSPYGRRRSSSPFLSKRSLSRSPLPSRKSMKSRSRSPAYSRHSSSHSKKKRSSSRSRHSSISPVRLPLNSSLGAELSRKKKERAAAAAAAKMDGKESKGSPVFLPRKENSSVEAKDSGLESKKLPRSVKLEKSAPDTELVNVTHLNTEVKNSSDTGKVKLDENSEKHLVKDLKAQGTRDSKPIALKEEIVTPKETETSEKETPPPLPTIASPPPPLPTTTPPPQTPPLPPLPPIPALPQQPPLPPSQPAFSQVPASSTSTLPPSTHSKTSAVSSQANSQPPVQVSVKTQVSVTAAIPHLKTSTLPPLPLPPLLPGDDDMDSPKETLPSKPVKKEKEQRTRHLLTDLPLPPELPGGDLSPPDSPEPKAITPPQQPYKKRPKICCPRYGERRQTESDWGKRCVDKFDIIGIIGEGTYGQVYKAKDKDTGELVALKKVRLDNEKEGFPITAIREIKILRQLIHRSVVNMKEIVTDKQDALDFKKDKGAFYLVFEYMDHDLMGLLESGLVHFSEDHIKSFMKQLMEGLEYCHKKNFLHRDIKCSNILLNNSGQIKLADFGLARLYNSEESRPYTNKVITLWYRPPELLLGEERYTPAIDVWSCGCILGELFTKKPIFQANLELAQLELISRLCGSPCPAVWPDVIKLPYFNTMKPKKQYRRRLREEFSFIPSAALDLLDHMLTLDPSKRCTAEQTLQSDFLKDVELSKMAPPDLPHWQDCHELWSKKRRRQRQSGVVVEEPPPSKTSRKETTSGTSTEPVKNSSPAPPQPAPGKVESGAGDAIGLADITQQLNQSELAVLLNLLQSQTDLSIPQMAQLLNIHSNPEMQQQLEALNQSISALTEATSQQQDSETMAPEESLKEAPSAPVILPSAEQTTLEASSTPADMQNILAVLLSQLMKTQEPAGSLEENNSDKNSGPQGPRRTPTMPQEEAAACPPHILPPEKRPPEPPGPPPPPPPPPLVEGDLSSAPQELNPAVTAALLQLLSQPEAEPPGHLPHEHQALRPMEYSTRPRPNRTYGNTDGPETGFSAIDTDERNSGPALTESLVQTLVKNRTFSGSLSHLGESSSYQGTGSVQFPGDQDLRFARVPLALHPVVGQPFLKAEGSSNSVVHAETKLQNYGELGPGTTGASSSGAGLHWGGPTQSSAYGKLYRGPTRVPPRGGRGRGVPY
Chain of CDK9/cyclin T1 (O60563 whole entry): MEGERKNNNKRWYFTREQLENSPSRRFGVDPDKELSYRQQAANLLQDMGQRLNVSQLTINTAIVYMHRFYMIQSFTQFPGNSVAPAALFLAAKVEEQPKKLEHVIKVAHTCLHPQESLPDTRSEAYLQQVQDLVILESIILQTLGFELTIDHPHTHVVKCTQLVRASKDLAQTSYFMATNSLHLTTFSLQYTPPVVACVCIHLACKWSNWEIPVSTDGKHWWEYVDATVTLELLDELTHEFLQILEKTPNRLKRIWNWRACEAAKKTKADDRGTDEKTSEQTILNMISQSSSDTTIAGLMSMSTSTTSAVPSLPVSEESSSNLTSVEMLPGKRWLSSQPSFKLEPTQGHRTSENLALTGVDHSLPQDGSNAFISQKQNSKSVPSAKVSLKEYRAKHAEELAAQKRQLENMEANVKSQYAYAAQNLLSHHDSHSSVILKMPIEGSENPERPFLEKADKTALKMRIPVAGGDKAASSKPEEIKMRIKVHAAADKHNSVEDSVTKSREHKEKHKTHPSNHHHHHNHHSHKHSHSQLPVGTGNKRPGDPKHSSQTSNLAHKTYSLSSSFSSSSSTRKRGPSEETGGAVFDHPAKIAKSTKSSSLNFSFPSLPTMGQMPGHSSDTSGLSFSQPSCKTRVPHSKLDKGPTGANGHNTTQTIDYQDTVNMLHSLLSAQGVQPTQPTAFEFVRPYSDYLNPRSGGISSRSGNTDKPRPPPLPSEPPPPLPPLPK
Chain of CDK9/cyclin T1 (P50750 whole entry): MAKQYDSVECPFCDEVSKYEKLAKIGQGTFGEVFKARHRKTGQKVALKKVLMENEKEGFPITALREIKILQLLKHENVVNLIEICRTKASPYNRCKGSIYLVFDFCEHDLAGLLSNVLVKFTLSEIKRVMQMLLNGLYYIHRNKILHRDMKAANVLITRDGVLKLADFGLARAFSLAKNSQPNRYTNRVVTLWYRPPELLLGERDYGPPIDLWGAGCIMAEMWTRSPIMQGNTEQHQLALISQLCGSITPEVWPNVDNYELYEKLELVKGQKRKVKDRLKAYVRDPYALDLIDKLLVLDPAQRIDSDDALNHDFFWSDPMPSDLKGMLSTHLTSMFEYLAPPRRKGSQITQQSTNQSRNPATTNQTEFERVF
Chain of Cyclin-dependent kinase 13/Cyclin-K (Q14004 whole entry): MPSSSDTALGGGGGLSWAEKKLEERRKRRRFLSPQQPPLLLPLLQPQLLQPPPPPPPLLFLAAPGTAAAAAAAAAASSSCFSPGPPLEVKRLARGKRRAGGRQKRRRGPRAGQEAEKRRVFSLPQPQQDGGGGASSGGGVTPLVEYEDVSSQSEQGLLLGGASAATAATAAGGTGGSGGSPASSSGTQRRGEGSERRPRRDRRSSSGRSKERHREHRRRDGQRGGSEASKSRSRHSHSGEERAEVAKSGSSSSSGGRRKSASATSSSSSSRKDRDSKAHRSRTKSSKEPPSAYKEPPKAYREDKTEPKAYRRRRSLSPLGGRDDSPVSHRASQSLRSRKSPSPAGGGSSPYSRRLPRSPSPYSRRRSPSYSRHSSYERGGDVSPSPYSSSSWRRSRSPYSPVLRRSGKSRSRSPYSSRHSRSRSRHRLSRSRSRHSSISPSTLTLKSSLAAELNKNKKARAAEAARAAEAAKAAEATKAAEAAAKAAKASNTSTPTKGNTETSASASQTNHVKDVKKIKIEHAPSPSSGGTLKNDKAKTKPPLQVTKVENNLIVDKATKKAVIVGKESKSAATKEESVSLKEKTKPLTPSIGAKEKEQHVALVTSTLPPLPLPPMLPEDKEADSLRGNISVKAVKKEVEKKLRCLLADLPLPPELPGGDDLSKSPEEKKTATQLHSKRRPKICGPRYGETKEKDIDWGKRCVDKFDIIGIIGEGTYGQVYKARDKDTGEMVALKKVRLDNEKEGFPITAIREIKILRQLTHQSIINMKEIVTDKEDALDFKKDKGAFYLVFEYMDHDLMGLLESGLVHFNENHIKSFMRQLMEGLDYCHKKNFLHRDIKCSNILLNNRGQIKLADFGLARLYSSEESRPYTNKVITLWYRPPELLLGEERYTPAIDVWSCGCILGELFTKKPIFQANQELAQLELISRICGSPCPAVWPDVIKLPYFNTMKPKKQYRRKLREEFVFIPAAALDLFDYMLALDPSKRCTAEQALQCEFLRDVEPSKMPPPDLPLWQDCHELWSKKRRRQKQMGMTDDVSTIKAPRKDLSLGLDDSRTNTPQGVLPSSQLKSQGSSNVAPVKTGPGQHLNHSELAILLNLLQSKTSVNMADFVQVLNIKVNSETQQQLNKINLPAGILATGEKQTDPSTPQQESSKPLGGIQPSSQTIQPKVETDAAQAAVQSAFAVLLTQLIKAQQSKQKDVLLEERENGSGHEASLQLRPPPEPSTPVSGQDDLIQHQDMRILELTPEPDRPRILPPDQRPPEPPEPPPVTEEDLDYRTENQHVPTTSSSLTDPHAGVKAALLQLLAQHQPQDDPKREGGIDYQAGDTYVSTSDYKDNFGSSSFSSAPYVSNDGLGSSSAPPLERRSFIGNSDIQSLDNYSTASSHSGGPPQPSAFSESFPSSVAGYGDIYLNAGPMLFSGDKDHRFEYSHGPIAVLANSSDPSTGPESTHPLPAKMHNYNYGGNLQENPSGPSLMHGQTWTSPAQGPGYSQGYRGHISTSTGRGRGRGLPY
Chain of Cyclin-dependent kinase 13/Cyclin-K (O75909 whole entry, further chain): as the sequence (O75909 whole entry) above

Consider `CC(C)c1[nH]nc2c(NCc3ccc(-n4cccn4)cc3)nc(S(C)(=O)=O)nc12`, for which the GI50 in [1] was 250 nM; in [3], 30 nM. In assay [2], the IC50 is 53 nM.
The matching figures for `CC(C)c1n[nH]c2c(NCc3ccc(-n4ccnc4)cc3)nc(S)nc12`: at least 10000 nM, at least 10000 nM and 2300 nM.
For the compound `CCc1cnn2c(NCc3ccc[n+]([O-])c3)cc(N3CCCC[C@H]3CCO)nc12` [DINACICLIB], the GI50 was determined as 22 nM in [1]; 11 nM in the assay on U2932; 14 nM in the assay on DB; 10 nM in assay [4]; 20 nM in the assay with OCI-LY19; 21 nM in [3]. For the same compound, the GI50 in the assay with SUD4 turned out to be 9 nM; in the assay on NU-DUL-1, 10 nM; in assay [7] it was 15 nM. For the same compound, the figures for the 50% inhibitory concentration (IC50) in assay [5] and in assay [6] were 21 nM and 13 nM, respectively. Moreover, in the assay with MINO, the outcome was Active.
For the compound `CC(C)c1n[nH]c2c(NCc3ccc(-c4c[nH]cn4)cc3)nc(S)nc12`, the GI50 in [1] and in assay [3] was at least 10000 nM throughout. Moreover, in [2], the IC50 came out at 464 nM.
Consider `NCCSc1nc(NCc2ccc(-c3ccccn3)cc2)c2[nH]nc(C3CCCC3)c2n1`, for which the GI50 in assay [1] worked out at 111 nM; in the assay with U2932 it was 265 nM; with DB, 107 nM; in assay [4], 47 nM; with OCI-LY19 it was 915 nM; in [3] it was 31 nM. The results for the GI50 (in the assay with SUD4; in the assay on NU-DUL-1; in [7]) were 180 nM, 200 nM and 330 nM, respectively. Also, the IC50 is 12 nM in [2]; 334 nM in [5]; above 1000 nM in [8]; 127 nM in [6]; 38 nM at CDK9/cyclin T1; 304 nM on CDK12/Cyclin K.
Consider `CC(C)c1[nH]nc2c(NCc3ccc(-n4cccn4)cc3)nc(SCCO)nc12`, for which the GI50 in assay [1] was 20 nM; in [3] it was 6 nM. For the same compound, the half-inhibitory concentration (IC50) in assay [2] was found to be 5 nM.
On to `CCC(O)CSc1nc(NCc2ccc(-n3cccn3)cc2)c2n[nH]c(C(C)C)c2n1` (configuration not stated), for which the GI50 in assay [1] was determined as 591 nM; in assay [3], 22 nM. Moreover, the half-inhibitory concentration (IC50) in [2] was 25 nM.
In the case of `CC(C)c1[nH]nc2c(NCc3ccc(-n4cccn4)cc3)nc(SCC(C)(C)N)nc12`, the GI50 in assay [1] was found to be 14 nM; in [3] it was 9 nM.
Turning to `CC(C)c1n[nH]c2c(NCc3ccc(-n4ccnc4)cc3)nc(SCCO)nc12`, the GI50 in assay [1] turned out to be 6470 nM; in [3], 1480 nM. Also, in assay [2], the IC50 came to 12 nM.
Consider `CN(C)C/C=C/C(=O)Nc1ccc(C(=O)N2CCC[C@@H](Nc3ncc(Cl)c(-c4c[nH]c5ccccc45)n3)C2)cc1`, for which the result in the assay with MINO was Active.
Consider `OCCSc1nc(NCc2ccc(-c3ccccn3)cc2)c2[nH]nc(C3CCC3)c2n1`, for which the GI50 in assay [1] was found to be 152 nM; in assay [3], 58 nM. In assay [2], the IC50 came out at 9 nM.
The like results for `CC(C)c1[nH]nc2c(NCc3ccc(-n4cccn4)cc3)nc(SCC(N)CN)nc12` (configuration not stated) were, in that order, 580 nM, 410 nM and 19 nM.
As to `CSc1nc(NCc2ccc(-n3cccn3)cc2)c2n[nH]c(C(C)C)c2n1`, the values for the GI50 in assay [1] and in assay [3] were 810 nM and 310 nM, respectively. Also, the IC50 in [2] worked out at 24 nM.
In the case of `CC[C@H](CO)Nc1nc(NCc2ccccc2)c2ncn(C(C)C)c2n1` [SELICICLIB], the GI50 was 3070 nM in assay [1] and 1480 nM in assay [3].
Turning to `NCCSc1nc(NCc2ccc(-c3ccccn3)cc2)c2[nH]nc(C3CCC3)c2n1`, the GI50 was 19 nM in [1]; 44 nM in the assay with U2932; 22 nM in the assay on DB; 40 nM in assay [4]; 350 nM in the assay with OCI-LY19; 11 nM in [3]. Further, the GI50 with SUD4 worked out at 30 nM; in the assay with NU-DUL-1, 17 nM; in assay [7], 23 nM. Moreover, the IC50 is 5 nM in [2]; 12 nM in assay [5]; 940 nM in [8]; 24 nM in assay [6]; 12 nM at CDK9/cyclin T1; 29 nM at CDK12/Cyclin K.
Regarding `CC(C)c1[nH]nc2c(NCc3ccc(-n4cccn4)cc3)nc(SCC(C)(C)O)nc12`, the GI50 in assay [1] worked out at 87 nM; in assay [3], 34 nM.
As for `CC(C)c1[nH]nc2c(NCc3ccc(-n4cccn4)cc3)nc(SCCCN(C)C)nc12`, the GI50 in assay [1] turned out to be 39 nM; in assay [3], 17 nM. Further, the half-inhibitory concentration (IC50) in [2] was determined as 75 nM.
As to `CC(C)c1n[nH]c2c(NCc3ccc(-c4cnccn4)cc3)nc(SCCN)nc12`, the GI50 in [1] was found to be 69 nM; in the assay with U2932 it was 93 nM; in the assay with DB it was 75 nM; in assay [4], 33 nM; in the assay on OCI-LY19 it was 445 nM; in assay [3], 22 nM. Besides, the GI50 amounted to 62 nM in the assay with SUD4, 54 nM with NU-DUL-1 and 54 nM in assay [7]. For the same compound, the IC50 in assay [5] is 22 nM; in assay [8], above 1000 nM; in assay [6], 157 nM; at CDK9/cyclin T1, 23 nM; at CDK12/Cyclin K it was 50 nM.
Turning to `CC(C)c1n[nH]c2c(NCc3ccc(-c4c[nH]cn4)cc3)nc(SCCO)nc12`, the concentration for 50% growth inhibition (GI50) worked out at 1420 nM in assay [1] and 490 nM in [3].
Take `CC(C)c1[nH]nc2c(NCc3ccc(-n4cccn4)cc3)nc(SCC(O)CO)nc12` (configuration not stated): the GI50 in assay [1] turned out to be 26 nM; in assay [3], 9 nM. Moreover, the IC50 in assay [2] came to 5 nM.
On to `CC(C)c1n[nH]c2c(NCc3ccc(-c4cnccn4)cc3)nc(SCCO)nc12`, for which the values for the GI50 in [1] and in assay [3] were 56 nM and 16 nM, respectively.
As for `CC(C)c1n[nH]c2c(NCc3ccc(-n4ccnc4)cc3)nc(SCCN)nc12`, the GI50 was 1770 nM in [1]; 689 nM in the assay with U2932; 599 nM in the assay with DB; 170 nM in assay [4]; 3560 nM with OCI-LY19; 927 nM in [3]. Moreover, the concentration for 50% growth inhibition (GI50) turned out to be 435 nM with SUD4, 384 nM in the assay with NU-DUL-1 and 435 nM in [7]. Besides, the IC50 in assay [2] was 4 nM; in [5], 67 nM; in assay [8] it was above 1000 nM; in assay [6], 54 nM; at CDK9/cyclin T1, 11 nM; on CDK12/Cyclin K, 73 nM.
`CC(C)c1[nH]nc2c(NCc3ccc(-n4cccn4)cc3)nc(SCCN)nc12`: the values for the GI50 in [1] and in assay [3] were 4 nM and 1 nM, respectively. The IC50 in [2] was determined as 2 nM.
The matching figures for `CC(C)c1[nH]nc2c(NCc3ccc(-n4cccn4)cc3)nc(SCC(O)CN)nc12` (configuration not stated): 95 nM, 43 nM and 6 nM.
As for `CC(C)c1[nH]nc2c(NCc3ccc(-n4cccn4)cc3)nc(SCCN(C)C)nc12`, the GI50 in assay [1] was 84 nM; in assay [3], 18 nM.
As for `CC(O)CNc1nc(NCc2ccc(-n3cccn3)cc2)c2n[nH]c(C(C)C)c2n1` (configuration not stated), the concentration for 50% growth inhibition (GI50) in [1] was 42 nM; in [3], 16 nM. Further, in assay [2], the IC50 came out at 37 nM.
The like results for `CC(C)c1n[nH]c2c(NCc3ccc(-c4cnccn4)cc3)nc(S)nc12` were, in that order, at least 10000 nM, 8900 nM and 978 nM.
Regarding `CC(C)c1[nH]nc2c(NCc3ccc(-n4cccn4)cc3)nc(S)nc12`, the results for the GI50 in [1] and in [3] were at least 10000 nM and 5900 nM, respectively. Besides, the IC50 in assay [2] came to 256 nM.
